Experimental data published in ChEMBL document CHEMBL2169878 (J Med Chem, 2012).

Assays:
[1] = test system: Salmonella typhimurium; assay: Mutagenicity against Salmonella typhimurium TA100 assessed as revertants at 5 uM incubated for 90 mins followed by drug washout measured after 2 days relative to positive control; format: toxicity, organism-based; details: salmonella enterica subsp. enterica serovar typhimurium, 1.5 h
[2] = test system: Homo sapiens; assay: Volume of distribution in po dosed human measured in plasma; format: ADME, organism-based; details: in vivo
[3] = Cytotoxicity against mouse NIH3T3 cells after 24 hrs by neutral red dye uptake assay; format: cell-based; details: read-out: TC50
[4] = test system: Salmonella typhimurium; assay: Mutagenicity against Salmonella typhimurium TA98 assessed as revertants at 5 uM incubated for 90 mins followed by drug washout measured after 2 days relative to positive control; format: toxicity, organism-based; details: salmonella enterica subsp. enterica serovar typhimurium, 1.5 h
[5] = test system: Salmonella typhimurium; assay: Mutagenicity against Salmonella typhimurium TA98 assessed as revertants at 10 uM incubated for 90 mins followed by drug washout measured after 2 days relative to positive control; format: toxicity, organism-based; details: salmonella enterica subsp. enterica serovar typhimurium, 1.5 h
[6] = test system: Salmonella typhimurium; assay: Mutagenicity against Salmonella typhimurium TA98 assessed as revertants at 80 uM incubated for 90 mins followed by drug washout measured after 2 days relative to positive control; format: toxicity, organism-based; details: salmonella enterica subsp. enterica serovar typhimurium, 1.5 h
[7] = test system: Salmonella typhimurium; assay: Mutagenicity against Salmonella typhimurium TA100 assessed as revertants at 80 uM incubated for 90 mins followed by drug washout measured after 2 days relative to positive control; format: toxicity, organism-based; details: salmonella enterica subsp. enterica serovar typhimurium
[8] = Half life in po dosed human plasma; format: ADME, organism-based
[9] = test system: Salmonella typhimurium; assay: Mutagenicity against Salmonella typhimurium TA100 assessed as revertants at […] incubated for 90 mins followed by drug washout measured after 2 days relative to positive control; format: toxicity, organism-based; details: salmonella enterica subsp. enterica serovar typhimurium
[10] = test system: Salmonella typhimurium; assay: Mutagenicity against Salmonella typhimurium TA98 assessed as revertants at 40 uM incubated for 90 mins followed by drug washout measured after 2 days relative to positive control; format: toxicity, organism-based; details: salmonella enterica subsp. enterica serovar typhimurium
[11] = test system: Salmonella typhimurium; assay: Mutagenicity against Salmonella typhimurium TA98 assessed as revertants at […] incubated for 90 mins followed by drug washout measured after 2 days relative to positive control; format: toxicity, organism-based; details: salmonella enterica subsp. enterica serovar typhimurium
[12] = test system: Homo sapiens; assay: Volume of distribution in po dosed human measured in whole blood; format: ADME, organism-based; details: in vivo
[13] = test system: Salmonella typhimurium; assay: Mutagenicity against Salmonella typhimurium TA100 assessed as revertants at 40 uM incubated for 90 mins followed by drug washout measured after 2 days relative to positive control; format: toxicity, organism-based; details: salmonella enterica subsp. enterica serovar typhimurium
[14] = test system: Salmonella typhimurium; assay: Mutagenicity against Salmonella typhimurium TA100 assessed as revertants at 20 uM incubated for 90 mins followed by drug washout measured after 2 days relative to positive control; format: toxicity, organism-based; details: salmonella enterica subsp. enterica serovar typhimurium, 1.5 h
[15] = Cytotoxicity against human HepG2 cells after 24 hrs by neutral red dye uptake assay; format: cell-based; details: read-out: TC50
[16] = test system: Salmonella typhimurium; assay: Mutagenicity against Salmonella typhimurium TA100 assessed as revertants at 10 uM incubated for 90 mins followed by drug washout measured after 2 days relative to positive control; format: toxicity, organism-based; details: salmonella enterica subsp. enterica serovar typhimurium
[17] = test system: Salmonella typhimurium; assay: Mutagenicity against Salmonella typhimurium TA98 assessed as revertants at 20 uM incubated for 90 mins followed by drug washout measured after 2 days relative to positive control; format: toxicity, organism-based; details: salmonella enterica subsp. enterica serovar typhimurium, 1.5 h
[18] = test system: Heart; assay: Cardiotoxicity against Sprague-Dawley rat Langendorff perfused heart assessed as QT time interval at 10 uM by electrophysiological analysis (reference value: 68.51 2.73 ms); format: toxicity, tissue-based
[19] = test system: Heart; assay: Cardiotoxicity against Sprague-Dawley rat Langendorff perfused heart assessed as QT time interval at 30 uM by electrophysiological analysis (reference value: 68.51 2.73 ms); format: toxicity, tissue-based

Vd [2] | half-life [8] | Vd [12] | SMILES | Activity [1] | CC50 at 24 h [3] | Activity [4] | Activity [5] | Activity [6] | Activity [7] | Activity [9] | Activity [10] | Activity [11] | Activity [13] | Activity [14] | CC50 at 24 h [15] | Activity [16] | Activity [17] | Time [18] | Time [19]
200 L/kg | 20 days | 200 L/kg | CCN(CC)CCCC(C)Nc1ccnc2cc(Cl)ccc12 (centres undefined) [CHLOROQUINE] | 21% | > 80 µM | 14% | 61% | 50% | 23% | 36% | 19% | 24% | 38% | 7% | 4.3 µM | 26% | 29% | – | –
– | – | – | CC(C)(C)c1ccc(C(O)CCCN2CCC(C(O)(c3ccccc3)c3ccccc3)CC2)cc1 (centres undefined) [TERFENADINE] | – | – | – | – | – | – | – | – | – | – | – | – | – | – | 99.83 ms | 125 ms
